Experiments:
CLL cells [1] = experiment: LC3 confocal immunofluorescence (autophagosome formation) in CLL cells in vitro; type: cell-based, human; conditions: CLL patient cells, 4 hours; rapamycin 5 μM, thapsigargin 1 μM, F-ara-A 5 μM, chlorambucil 20 μM, CAL-101 1 μM, rituximab 10 μg/ml, flavopiridol 2 μM, CQ 0.5 μM
Method: (§1) After 4 hours exposure to agents, cells were washed in phosphate-buffered saline (PBS) and made adherent on a microscope slide by centrifugation in a Cytospin3 (Shandon) centrifuge. Immediately after cytospin, cells were fixed in cold acetone. […] Nuclei were stained blue with DAPI (Vector Laboratories, Burlingame, Calif.). Images were taken using a 60× objective and 4× digital zoom with Olympus Fluoview 1000 Laser Scanning Confocal microscope at the Ohio State University Campus Microscopy and Imaging Facility. ATF6 antibody was purchased from LifeSpan Biosciences (Seattle, Wash.) and Nrf2 was from Santa Cruz Biotechnology (Santa Cruz, Calif.). Nuclei were evaluated for ATF6 and Nrf2 using confocal microscopy to collect Z stacks, approximately 45 slices per cell, 0.2 μm each.
LC3 intensity and number of dots per cell were both assessed in the fluorescence images. Integrated intensity was measured using Metamorph v.7.0. To calculate the number of “dots” (local extreme point in pixel-intensity profile at which a number of high-intensity pixels form a cluster), a Gaussian filter was first applied to reduce noise. Cells were enumerated electronically by an improved watershed-based algorithm. To quantify co-localization, two binary nuclei images—red (R) and green (G)—are obtained. The correlation value is calculated as the number of white pixels of (R&G) divided by the number of pixels of (RIG), where (R&G) is the intersection of R and G, and (RIG) is the union of R and G. The program used for cell counts and measurement of correlation index is based on MatLab software (Natick, Mass.) and it was developed by members of Department of Biomedical Informatics, The Ohio State University.

CLL cells [2] = experiment: LC3-Lamp2 co-localization (autophagosome-lysosome fusion) by confocal microscopy in CLL cells; type: cell-based, human; conditions: CLL cells incubated with 5 μM rapamycin (FIG. 9)
Method: as §1
LC3 intensity and number of dots per cell were both assessed in the fluorescence images. Integrated intensity was measured using Metamorph v.7.0. To calculate the number of “dots” (local extreme point in pixel-intensity profile at which a number of high-intensity pixels form a cluster), a Gaussian filter was first applied to reduce noise. Cells were enumerated electronically by an improved watershed-based algorithm. To quantify co-localization, two binary nuclei images—red (R) and green (G)—are obtained. […]

CLL cells [3] = experiment: Cell viability by annexin V/PI flow cytometry in CLL cells
Method: Percent of live cells was determined by staining with annexin V-fluorescein isothiocyanate and propidium iodide (PI). After exposure to agents, cells were washed with PBS and stained in 1× binding buffer (BD Biosciences, Franklin Lakes, N.J.). Cell viability was assessed by flow cytometry using a Beckman-Coulter Cytomics FC500 cytometer. Data were analyzed with the CXP Cytometer software package (Beckman-Coulter). A total of 10,000 cells were counted for each sample. The cells treated with flavopiridol were washed after 4 hours with PBS and re-suspended in regular growth medium (RPMI 1640) supplemented with 10% human serum and antibiotics for the remainder of the incubation time. […] For all the other conditions, cells were incubated with the respective drugs for 24 hours continuously.
CLL cells were suspended in buffer V (Amaxa kit, Lonza, Allendale, N.J.) and nucleofection was performed using program U016 (5 μg siRNA and 1×10^7 cells per cuvette). Scrambled siRNA and siRNAs to ATG5, ATG7 and ASK1 were purchased from Sigma-Aldrich. Cells were immediately suspended in warm, complete media supplemented with 10% human serum, and RNA was extracted after 36 hours. For CDK1 and CDK5, siRNAs were purchased from Applied Biosystems (Carlsbad, Calif.). Transfections were done using 5 nM siRNA per cuvette, and RNA was harvested at 48 hours.

IRE1 = experiment: XBP1 splicing (IRE1 activity) PCR in CLL cells; type: cell-based, human; conditions: for induction of XBP1 splicing: CLL samples
Method: (§2) RNA was extracted using TRIzol reagent (Invitrogen, Carlsbad, Calif.) and purified using QIAGEN RNeasy columns (Qiagen, Valencia, Calif.). cDNA was prepared with SuperScript First-Strand Synthesis System (Invitrogen). Real-time PCR was performed using primers purchased from Applied Biosystems. Detection was performed using an ABI Prism 7700 sequence detection system (Applied Biosystems). Average relative expression (treatment compared with vehicle) was normalized to the internal control gene CD52. Primers to detect spliced XBP1 were designed using Primer 3 software and purchased from IDT. Samples were analyzed on 10% acrylamide gels.

JNK1 and p38MAPK = experiment: Immunoblot of phosphorylated JNK1 and p38MAPK in CLL cells in vitro; type: cell-based, human; conditions: flavopiridol 2 μM, thapsigargin 1 μM, F-ara-A 5 μM
Method: (§3) Proteins extracted from whole cell lysates (50 μg/lane) were separated on polyacrylamide gels and transferred on nitrocellulose membrane. Antibodies used for immunoblots included LC3, IRE1α, TRAF2, PI3K III, ATG4C, ATG5-12, UVRAG, Beclin-1 (Cell Signaling, Boston, Mass.), GAPDH, Nrf2, ASK1, ULK1 (Santa Cruz Biotechnology), and Bif-1, ATG14-Barkor (Sigma-Aldrich, St Louis, Mo.). Species-appropriate secondary antibodies were obtained from BioRad Laboratories (Hercules, Calif.). Following antibody incubations, proteins were detected using a chemiluminescent substrate (BioRad Laboratories). For co-immunoprecipitations, TrueBlot beads (eBiosciences, San Diego, Calif.) and One-hour IP Western kit (GenScript, Piscataway, N.J.) were used according to manufacturer protocols. Quantification was done using FluorChem Q (Alpha Innotech, San Leandro Calif.).

PERK = PERK activity by eIF2α phosphorylation immunoblot in CLL cells; type: cell-based, human
Method: as §3

697 cells = experiment: ChIP assay of ATF6 at GRP78 promoter in 697 cells; type: cell-based; conditions: relative to IgG control
Method: In brief, cells were treated with 37% formaldehyde to ensure crosslinking of proteins to DNA. Cells were lysed and sonicated to shear the chromatin to fragments of approximately 500 bp. Sheared chromatin was incubated with ATF6 antibody (LifeSpan Biosciences, Seattle, Wash.), followed by precipitation, washing and reversing of the crosslinks Purified DNA was then analyzed by real-time quantitative PCR using primers to the GRP78 promoter region. Primers were designed using Primer 3 software and purchased from IDT (Coralville, Iowa).

Jurkat cell line = experiment: eIF2α phosphorylation immunoblot in cell lines (control); type: cell-based
Method: as §3

ATF6 = ATF6 nuclear translocation by confocal fluorescence microscopy in CLL cells; type: cell-based, human; conditions: CLL patient cells, flavopiridol 2 μM or thapsigargin 1 μM, 4 hours
Method: After 4 hours exposure to agents, cells were washed in phosphate-buffered saline (PBS) and made adherent on a microscope slide by centrifugation in a Cytospin3 (Shandon) centrifuge. Immediately after cytospin, cells were fixed in cold acetone. Next, the cells were incubated in blocking solution (2% bovine serum albumin in PBS) and stained for LC3 (Cell Signaling, Boston, Mass.)) and Lamp2 (Santa Cruz Biotechnology, Santa Cruz, Calif.) by incubating separately with the respective primary antibodies over night, in 4° C., followed by incubation with fluorescent secondary antibodies (Invitrogen, Carlsbad, Calif.): Alexa fluor 594 (red) anti-rabbit for LC3 and Alexa fluor 488 (green) anti-mouse for Lamp2. Nuclei were stained blue with DAPI (Vector Laboratories, Burlingame, Calif.). Images were taken using a 60× objective and 4× digital zoom with Olympus Fluoview 1000 Laser Scanning Confocal microscope at the Ohio State University Campus Microscopy and Imaging Facility. ATF6 antibody was purchased from LifeSpan Biosciences (Seattle, Wash.) and Nrf2 was from Santa Cruz Biotechnology (Santa Cruz, Calif.). Nuclei were evaluated for ATF6 and Nrf2 using confocal microscopy to collect Z stacks, approximately 45 slices per cell, 0.2 μm each.

[4] = test system: cell lines 293T, RAW and 697, normal B cells; experiment: XBP1 splicing PCR in normal B cells and cell lines; type: cell-based
Method: as §2

XBP1, IRE1, GRP78 = experiment: Real-time RT-PCR of ER stress genes in CLL cells in vitro; type: cell-based, human; conditions: CLL cells n=5; flavopiridol 2 μM, thapsigargin 1 μM, tunicamycin 3 μg/ml; CD52 control gene
Method: as §2

caspase 8 = experiment: Caspase 8 activity (AFC assay) in CLL cells treated in vitro; type: cell-based, human; conditions: Z-YVAD-FMK 20 μM in combination with flavopiridol, thapsigargin or tunicamycin
Method: (§4) The presence of active caspase enzymes was determined by the AFC assay. Briefly, lysates containing approximately 3×10^6 cells were incubated with 50 μM LEVD-AFC (caspase 4 substrate) or LETD-AFC (caspase 8 substrate) from MP Biomedicals (Solon, Ohio) in 2× cytobuffer from BioVision (Exton, Pa.) containing 10 mM dithiothretiol (DTT). Caspase 4 activity was measured one hour after addition of substrate and caspase 8 activity was measured 30 minutes after addition of substrate. Release of free AFC was measured with a Beckman-Coulter DTX 880 multimode detector (Filters: excitation, 405/10 nm; emission, 535/25 nm). Caspase 4 inhibitor Z-YVAD-FMK was purchased from R&D Systems.

caspase 4 = experiment: Caspase 4 activity (AFC assay) in CLL cells treated in vitro; type: cell-based, human; conditions: Z-YVAD-FMK 20 μM in combination with flavopiridol, thapsigargin or tunicamycin
Method: as §4

## O=C(O)CCCc1ccc(N(CCCl)CCCl)cc1 [chlorambucil]
CLL cells [1]
  LC3 aggregation / LC3 fluorescence (autophagosome formation) versus vehicle: neither chlorambucil nor rituximab produced this effect

## CCN(CC)CCCC(C)Nc1ccnc2cc(Cl)ccc12 (centres unmarked) [chloroquine]
CLL cells [2]
  chloroquine concentrations that inhibit autophagosome-lysosome fusion: 0.1 to 0.5 µM

## rituximab: agent used in CLL, from Genentech
CLL cells [1]
  LC3 aggregation / LC3 fluorescence (autophagosome formation) versus vehicle: neither chlorambucil nor rituximab produced this effect

## C/C=C(/C)C(=O)O[C@H]1C(C)=C2[C@H]([C@@H]1OC(=O)CCCCCCC)[C@@](C)(OC(C)=O)C[C@H](OC(=O)CCC)[C@@]1(O)[C@H]2OC(=O)[C@@]1(C)O [thapsigargin]
CLL cells [3]; CLL cells, annexin/PI negative, CQ 0.5 μM, flavopiridol 4 hours then washed, CQ continuous 24 hours
  effect of chloroquine addition on cell death caused by the agent: significantly enhanced
CLL cells [3]; human, 24 h, 1 μM
  effect of ATG5/ATG7 siRNA vs scrambled siRNA on cytotoxicity of the agent: significantly (P=0.0047) enhanced
IRE1; CLL cells
  IRE1 activity (splicing of IRE1 substrate XBP1): no evidence of IRE1 activity
IRE1
  induction of XBP1 splicing: neither thapsigargin nor tunicamycin induced XBP1 splicing in any of the samples analyzed
JNK1 and p38MAPK
  phosphorylation of JNK1 and p38MAPK: induced the phosphorylation of both JNK1 and p38MAPK
PERK
  PERK activity (phosphorylation of eIF2α): minimally active
697 cells
  binding of GRP78 promoter region by ATF6: enhanced binding of the GRP78 promoter region by ATF6
Jurkat cell line
  eIF2α phosphorylation: dramatic EIF2α phosphorylation
ATF6
  ATF6 nuclear translocation: increased nuclear translocation
[4]
  XBP1 splicing: XBP1 splicing is detected
CLL cells [1]
  LC3 aggregation / LC3 fluorescence (autophagosome formation) versus vehicle: increase in LC3 aggregation
XBP1, IRE1, GRP78
  expression of ER stress genes XBP1, IRE1 and GRP78: significant, time-dependent increase in expression of ER stress genes XBP1, IRE1 and GRP78

## tunicamycin
IRE1
  induction of XBP1 splicing: neither thapsigargin nor tunicamycin induced XBP1 splicing in any of the samples analyzed
XBP1, IRE1, GRP78
  expression of ER stress genes XBP1, IRE1 and GRP78: significant, time-dependent increase in expression of ER stress genes XBP1, IRE1 and GRP78

## Z-YVAD-FMK
CLL cells [3]; CLL cells n=5, Z-YVAD-FMK 20 μM, flavopiridol 2 μM, 24 hours
  effect on flavopiridol-mediated cell death: significantly (P=0.012) reduced
Caspase 8
  inhibition of agent-induced caspase 8 activity: successfully inhibited
Caspase 4
  inhibition of agent-induced caspase 4 activity: successfully inhibited

Reference: US9044474B2, “Compositions and methods for increasing drug efficacy in cancer” (The Ohio State University, priority 2010, dated 2015)
